{
  "source": "patent EP1240898A2",
  "about": "“Use of 2-deoxy ecdysterone for the preparation of a medicament for inducing labour or abortion” (Council of Scientific and Industrial Research, priority 2000, dated 2001)",
  "key": {"[1]": {"conditions": "radiolabelled, injected into human volunteers, within 5 hours; cited from earlier work"}, "[2]": {"test_system": "guinea pig uterus", "experiment": "Oxytocic activity on isolated guinea pig uterus (height of contraction compared with standard oxytocin or PGF2α)", "type": "cell-based", "conditions": "at the concentration of 200 µg/ml"}},
  "data": [
    {"smiles": "CCCCC[C@H](O)/C=C/[C@H]1[C@H](O)CC(=O)[C@@H]1C/C=C\\CCCC(=O)O", "note": "[PGE2]", "values": [
      {"measurement": "radioactivity excreted in the urine", "setting": "[1]", "value": "about 50%"}
    ]},
    {"smiles": "CC(C)(O)CC[C@@H](O)[C@](C)(O)[C@H]1CC[C@@]2(O)C3=CC(=O)[C@@H]4C[C@@H](O)CC[C@]4(C)[C@H]3CC[C@]12C", "note": "[2-deoxy ecdysterone]", "values": [
      {"measurement": "potency compared with the standards (in words)", "setting": "[2]", "value": "more potent than the standard oxytocin and PGF2α"}
    ]},
    {"smiles": "CCCCC[C@H](O)/C=C/[C@@H]1[C@@H](C/C=C\\CCCC(=O)O)[C@@H](O)C[C@H]1O", "note": "[PGF2α]", "values": [
      {"measurement": "radioactivity excreted in the urine", "setting": "[1]", "value": "around 90%"}
    ]}
  ]
}
